The results in this text go back to patent US20250327133A1, “USE OF SRE-PTPRZ1 INHIBITOR IN PREPARATION OF DRUG FOR TREATING SQUAMOUS CELL CARCINOMA” (WEST CHINA HOSPITAL, SICHUAN UNIVERSITY, priority 2022, published 2025).

pIC50: −log10 of the molar value.

Data set [1] has as its system human Lung-LUSC cell lines. Kind of data set: CCK8 cell proliferation, MY33-3, Lung-LUSC cell lines. In kind it is cell-based. To be noted: 7 human Lung LUSC cell lines; 72 hours. As to the method: (§1) The CCK8 method was used to detect the effect of PTPRZ1 inhibitor MY33-3 on cell proliferation. 7 strains of human Lung-LUSC cells, one strain of human lung adenocarcinoma cell, one strain of human normal lung epithelial cell BEAS-2B, and one strain of PTPRZ1 high expressing cell line U251 (high expression of PTPRZ1 gene in glioma cells) were used in this experiment for detection. Each cell line was inoculated into a 96-well plate at a density of 6000 cells/well, cultured for 24 hours, and then 100 μL of MY33-3 working solution was added to the test wells at final concentrations of 0 μM, 1 μM, 2 μM, 4 μM, 8 μM, 16 μM, 32 μM, and 64 μM, while 100 μL of medium was added to the blank control well. After 72 hours of drug treatment, 20 μL of CCK8 was added in proportion and incubated for 1 hour. The absorbance value was measured at 450 nm, and the IC50 values of MY33-3 against different cells were plotted.

In data set [2] the test system is human Lung LUAD cell line. Kind of data set: CCK8 cell proliferation, MY33-3, lung adenocarcinoma cell line. In kind it is cell-based. To be noted: one human Lung LUAD cell line; 72 hours. The procedure:
as §1

The test system of data set [3] is human normal lung epithelial cell line BEAS-2B. The experiment in a line: CCK8 cell proliferation, MY33-3, BEAS-2B. In kind it is cell-based. To be noted: 72 hours. As to the method:
as §1

The test system of data set [4] is PTPRZ1 glioma cell line U251. The experiment in a line: CCK8 cell proliferation, MY33-3, U251. In kind it is cell-based. The following applies: Homo sapiens, U-251, 72 hours. The procedure: as §1
Data set [5] concerns human Lung-LUSC (H520) cells. Kind of data set: Subcutaneous tumor formation in nude mice (H520). To be noted: for tumor size compared with the model group / tumor volume compared with the model group: after 21 days of administration. In kind it is in vivo, BALB/c-nu mice. The procedure:
At the animal level, the method of subcutaneous tumor formation in nude mice was used to verify the therapeutic effect of the inhibitor MY33-3 on the tumor formation of human Lung-LUSC (H520) cells. Firstly, 30 of 4W BALB/c-nu mice were purchased from GemPharmatech and acclimated for 3 days. Then, 150 μL of pre-prepared H520 cells was injected subcutaneously into the right forelimb of nude mice at 8×10^6 cells/mouse. After 7 days, the tumor growth of each nude mouse was observed, and the mice were grouped and received drugs when the tumor grew to 100 mm^3. Mice were divided into the blank group, the model group, the low-dose group, and the high-dose group, with 7 mice in each group. Meanwhile, the inhibitor MY33-3 was administered at doses of 20 mg/kg (low-dose group) and 100 mg/kg (high-dose group) once every 2 days, and the changes in tumor growth were recorded using a vernier caliper. Then, after 21 days of administration, samples were collected, and the therapeutic effect of the inhibitor MY33-3 on human Lung-LUSC cells was evaluated using indicators such as tumor volume, tumor weight, and nude mouse weight.

Data set [6] relates to H520 cells. The experiment in a line: CCK8 cell survival, MY-10, H520. To be noted: 72 hours. In kind it is cell-based, human. As to the method:
(§2) The CCK8 method was used to detect the effect of the PTPRZ1 inhibitor MY-10 on cell proliferation. 3 human Lung-LUSC cells and one PTPRZ1 high expression cell line U251 (high expression of PTPRZ1 gene in glioma cells) were used in this experiment for detection. Each cell line was inoculated into a 96-well plate at a density of 5000 cells/well, cultured for 24 hours, and then 100 μL of MY-10 working solution was added at final concentrations of 0 μM, 1 μM, 2 μM, […], 6 μM, and […] to the test wells, while 100 μL of medium was added to the blank control well. After 72 hours of drug treatment, 20 μL of CCK8 was added in proportion, followed by incubating for 1 h. The absorbance value was measured at 450 nm, and the survival rates of MY-10 against different Lung-LUSC cells were plotted.

For data set [7], the system named is H1703. Kind of data set: CCK8 cell survival, MY-10, H1703. In kind it is cell-based, human. To be noted: 0-8 μM, 72 hours. As to the method:
as §2

Data set [8] concerns LK-2. Kind of data set: CCK8 cell survival, MY-10, LK-2. In kind it is cell-based, human. The following applies: 0-8 μM, 72 hours. The procedure: as §2
For data set [9], the system named is PTPRZ1 glioma cell line (U251). Kind of data set: CCK8 cell survival, MY-10, U251. In kind it is cell-based. The following applies: 0-8 μM, 72 hours. As to the method: as §2
Data set [10] concerns human Lung-LUSC cells. Kind of data set: CCK8 cell growth inhibition by NAZ2329, Lung-LUSC cells. In kind it is cell-based. The following applies: 5-70 μM, 72 hours. The procedure:
(§3) The CCK8 method was used to detect the inhibition rate of PTPRZ1 inhibitor NAZ2329 on cell growth. 5 strains of human Lung-LUSC cells, one strain of human normal lung epithelial cell BEAS-2B, and one strain of highly expressed PTPRZ1 cell line U251 (High expression of PTPRZ1 gene in glioma cells) were used in this experiment for detection. Each cell line was inoculated into a 96-well plate at a density of 8000 cells/well, and cultured for 18 h. Then, 100 μL of NAZ2329 solution was added to the test wells at final concentrations of 5 μM, 10 μM, 20 μM, 30 μM, 40 μM, 50 μM, 60 μM, and 70 μM, while 100 μL of medium was added to the blank control well. After 72 hours of drug treatment, 20 μL of CCK8 was added in proportion and incubated for 2 h. The absorbance value was measured at 450 nm and the inhibition rate curve was plotted.

Data set [11] has as its system human normal lung epithelial cell BEAS-2B. The experiment in a line: CCK8 cell growth inhibition by NAZ2329, BEAS-2B. The following applies: 5-70 μM, 72 hours. In kind it is cell-based. As to the method:
as §3

For data set [12], the system named is glioma cell line U251. Kind of data set: CCK8 cell growth inhibition by NAZ2329, U251. In kind it is cell-based. The following applies: 5-70 μM, 72 hours. The procedure:
as §3

Regarding `FC(F)(F)Sc1ccc(CNCc2ccc(SC(F)(F)F)cc2)cc1` [MY33-3], the pIC50 was over 4.80 in data set [1], 4.60 in data set [2], 4.55 in [3] and 4.48 in data set [4]. For the same compound, the “inhibitory effect on tumorigenicity of H520 cells” value in data set [5] (dose of 20 mg/kg) is “good inhibitory effect”. Further, the “weight of nude mice versus model group” value in data set [5] (high-dose group 100 mg/kg) and in data set [5] (low-dose group 20 mg/kg) was “no significant difference” in each case. In addition, the “tumor size compared with the model group” value in data set [5] (high-dose group 100 mg/kg once every 2 days) and in data set [5] (low-dose group 20 mg/kg once every 2 days) was “significantly decreased” in each case. For the same compound, the “tumor volume compared with the model group” value in data set [5] (high-dose group 100 mg/kg) and in data set [5] (low-dose group 20 mg/kg) was “more significantly decreased” each time.
Turning to `FC(F)(F)Sc1ccc(CCCOc2ccc(SC(F)(F)F)cc2)cc1` [MY-10], the “inhibitory effect with increasing concentrations” value in data set [6] (H520, 0-8 μM) is reported as “significant inhibitory effects”; in data set [7], “significant inhibitory effects”; in data set [8] it was “significant inhibitory effects”; in data set [9], “significant inhibitory effects”. Also, the pIC50 in data set [6] (Homo sapiens, NCI-H520, H520 cells, read-out: IC50 (survival rate)) was about 5.40.
On to `CCOc1ccc(C(F)(F)F)cc1CSc1ccsc1C(=O)NS(=O)(=O)c1ccccc1` [NAZ2329], for which the “growth inhibition rate on cell growth” value in [10] (4 strains of Lung-LUSC cells, compared with BEAS-2B and U251) is “significantly higher than that of human normal lung epithelial cells BEAS-2B and glioma cell line U251”. The “cell growth with increasing treatment concentration” value in data set [10] (Lung-LUSC cells), in [11] and in [12] was “inhibited” in each case.
